Data reported in patent US12023348B2, “EGR1 targeting molecules for the treatment of inflammatory and hyperproliferative conditions” (The Medical Research, Infrastructure and Health Services …, priority 2015, dated 2024).

What was measured:
[1] = tested on: SAMD9; assay: SAMD9 RNA expression by qRT-PCR in TERC-transformed fibroblasts; format: cell-based, human; settings: 5 μM, 24 hours, qRT-PCR vs DMSO (FIG. 1C)
Protocol: TERC-transformed fibroblasts were transformed with a pBABE-H2AGFP construct containing the human telomerase gene were cultured High Glucose DMEM, 10% FCS, L-glutamine and Pen-Strep (all cell culture regents from Biological Industries, Israel). Medium was changed every 2-3 days. Cells were used at passage 2-3.
(§1) Of note, when cells were incubated with CaCx and ApDx (NCI, MA USA), they were grown in the appropriate medium with 0.1% FCS only.
RNA was extracted from cell cultures using an RNA extraction kit (Roche Diagnostics, Mahheim, Germany). cDNA was synthesized from 500 ng of total RNA using the Verso cDNA kit (Thermo Fisher Scientific, Waltham, MA, USA). cDNA PCR amplification was carried out using the Fast SYBR Green Master Mix in a StepOnePlus™ Real-Time PCR System (Applied Biosystems, Foster City, CA, USA) with gene-specific intron-crossing oligonucleotide pairs listed in Table 1 (below). For quantification, standard curves were obtained using serially diluted cDNA amplified in the same qRT-PCR run. The melting temperature (Tm) of the amplified products was measured to confirm the specificity of the reaction conditions. […] Each sample was analyzed in triplicate. mRNA expression level for target gene was normalized to GAPDH. The results are based the amount of target, normalized to an endogenous reference (IACTB) and relative to a calibrator, as calculated by 2-ΔΔCT. […]

[2] = tested on: EGR1; assay: EGR1 RNA expression by qRT-PCR in primary fibroblasts; format: cell-based, human; settings: 5 μM over 72 hours, different time points (FIG. 3)
Protocol: (§2) Primary fibroblasts were isolated from human adult skin and were grown in High Glucose DMEM, 10% Fetal Bovine Serum, L-glutamine and Pen-Strep. Medium was changed every 2-3 days. Cells were used at passage 2-3.
as §1
RNA was extracted from cell cultures using an RNA extraction kit (Roche Diagnostics, Mahheim, Germany). cDNA was synthesized from 500 ng of total RNA using the Verso cDNA kit (Thermo Fisher Scientific, Waltham, MA, USA). cDNA PCR amplification was carried out using the Fast SYBR Green Master Mix in a StepOnePlus™ Real-Time PCR System (Applied Biosystems, Foster City, CA, USA) with gene-specific intron-crossing oligonucleotide pairs listed in Table 1 (below). For quantification, standard curves were obtained using serially diluted cDNA amplified in the same qRT-PCR run. The melting temperature (Tm) of the amplified products was measured to confirm the specificity of the reaction conditions. […] Each sample was analyzed in triplicate. mRNA expression level for target gene was normalized to GAPDH. The results are based the amount of target, normalized to an endogenous reference (IACTB) and relative to a calibrator, as calculated by 2-ΔΔCT. […] The expression levels of target genes were expressed as mRNA relative units.

[3] = tested on: SAMD9; assay: SAMD9 RNA expression by qRT-PCR in HeLa cells; format: cell-based, human; settings: for SAMD9 expression in HeLa cells: 5 μM, 24 hours, qRT-PCR vs DMSO (FIG. 1C); for SAMD9 expression fold change in HeLa cells: fold increase in RNA gene expression vs cells treated with vehicle only
Protocol: HeLa cells were cultured in DMEM 4.5 g/l glucose medium containing 10% FCS, 1% L-glutamine and 1% penicillin and streptomycin (Biological Industries) and grown at 37° C. and 5% CO2.
as §1
(§3) RNA was extracted from cell cultures using an RNA extraction kit (Roche Diagnostics, Mahheim, Germany). cDNA was synthesized from 500 ng of total RNA using the Verso cDNA kit (Thermo Fisher Scientific, Waltham, MA, USA). cDNA PCR amplification was carried out using the Fast SYBR Green Master Mix in a StepOnePlus™ Real-Time PCR System (Applied Biosystems, Foster City, CA, USA) with gene-specific intron-crossing oligonucleotide pairs listed in Table 1 (below). For quantification, standard curves were obtained using serially diluted cDNA amplified in the same qRT-PCR run. The melting temperature (Tm) of the amplified products was measured to confirm the specificity of the reaction conditions. Cycling conditions were as follows: 95° C. for 10 minutes, 95° C. for 10 seconds, 62° C. for 15 seconds, and 72° C. for 25 seconds for a total of 40 cycles. Each sample was analyzed in triplicate. mRNA expression level for target gene was normalized to GAPDH. The results are based the amount of target, normalized to an endogenous reference (IACTB) and relative to a calibrator, as calculated by 2-ΔΔCT. All samples were run in triplicate. The expression levels of target genes were expressed as mRNA relative units.
(§4) The potential ability of these 31 molecules to induce SAMD9 expression in cell cultures was then scrutinized.

[4] = tested on: SAMD9 promoter; assay: High-throughput luciferase reporter screen in HeLa line stably expressing 585 bp SAMD9 promoter fragment; format: cell-based, human; settings: Homo sapiens, HeLa; fold increase in promoter activity by luciferase assay vs cells treated with vehicle only; test drugs 10 μM, 24 hours; read-out: SAMD9 expression fold change in HeLa reporter assay
Protocol: HeLa cell lines stably expressing the constructs were generated under neomycin selection. Briefly, pGL4.17 containing a SAMD9 promoter fragment spanning 585 bp upstream to the TSS and an empty pGL4.17 vector were transfected into HeLa cells. Forty eight hours after transfection, standard medium was replaced with medium containing 600 μg/ml G418 (Sigma-Aldrich), cells were kept under G418 selection and the selective medium was replaced approximately every 2-3 days. After two passages, colonies of stable cells were isolated, expanded and frozen for further use.
Test drugs were dispensed at a concentration of 10 μM by a robotic system into 96-well plates containing 9000 cells/well expressing the pGL4.17 reporter construct carrying a 585 bp SAMD9 promoter fragment operably linked to luciferase gene or the empty pGL4.17 luciferase construct (Promega cat. no. E6721). Medium was removed after 24 hours and the cells subjected to Steady-Glo luciferase lysis-substrate solution assay (Promega) as described above. Liquid handling was done with the Tecan (Tecan) Freedom 150 (Robotic & MCA liquid Handling System) and the luciferase reading was done with a robot integrated Tecan Infinite® M1000 reader.
This cell line was then used to robotically screen a total of 1496 compounds obtained from the National Cancer Institute Diversity Set III and Oncology Drugs Set III small molecule libraries.

[5] = tested on: SAMD9; assay: SAMD9 RNA expression by qRT-PCR in primary fibroblasts; format: cell-based, human; settings: for SAMD9 expression in primary fibroblasts: 5 μM, 24 hours, qRT-PCR vs DMSO (FIG. 1C); for Dose and time dependence of SAMD9 up-regulation: primary fibroblasts, 5 μM over 72 hours, 1, 2, 5, 10 μM (FIGS. 2A-B)
Protocol: as §2, §1, §3, §4

[6] = tested on: human psoriatic skin graft; assay: Chimeric mice carrying human psoriatic skin; format: in vivo; settings: for Clinical and histological psoriasiform phenotype (average improvement score) / Overt toxicity / Epidermal thickness / Keratinocyte proliferation (Ki67): i.p. five times a week; for Clinical and histological psoriasiform phenotype (average improvement score) / Overt toxicity: 10 days; for Clinical and histological psoriasiform phenotype (average improvement score): ApDx 5 mg/kg (p<0.0001), CaCx 15 mg/kg (p<0.05) (FIG. 6); for Overt toxicity / Epidermal thickness / Keratinocyte proliferation (Ki67): ApDx 5 mg/kg or CaCx 15 mg/kg; for Epidermal thickness / Keratinocyte proliferation (Ki67): biopsies after 10 days (FIGS. 7A-F, 8)
Source text: Chimeric mice carrying human psoriatic skin were generated using SCID mice, 2-3 months of age. Animals were maintained in a pathogen-free animal facility. A psoriasis-like phenotype was induced in normal human skin grafted onto the mice by intradermal injection of natural killer/T cells derived from psoriatic patients as previously described [Gilhar A et al. J Invest Dermatol (2011) 131: 118-124].
Formaldehyde-fixed 5-μm paraffin-embedded sections from skin biopsies were deparaffinized and treated with 3% H2O2 in methanol for 15 minutes at room temperature, warmed in a microwave oven in citrate buffer in a pressure cooker for 25 minutes, and stained with a monoclonal anti-Ki67 antibody (Thermo Scientific) for 1 hour at room temperature. Following 3 washings (10 minutes each) with phosphate-buffered saline (PBS), the antibodies were imaged using the ABC technique (Zymed Laboratories, South San Francisco, CA) and the slides were counterstained with hematoxylin.
Epidermal thickness was defined as the distance between the granular layer and the basement membrane and was measured at 10 randomly selected locations for each biopsy using NIS-Elements BR 3.2 software (Nikon, NY USA). An image was taken and was manually measured in the software by selecting an upper and lower border, as defined above. The distance was measured in microns.
as §3
To assess the potential therapeutic role of the compounds (ApDx and CaCx) of some embodiments of the invention, the two compounds were administered systemically (i.p) to chimeric mice carrying human psoriatic skin. In short, SCID mice, 2-3 months of age, were maintained in a pathogen-free animal facility. A psoriasis-like phenotype was induced in normal human skin grafted onto the mice by intradermal injection of natural killer/T cells derived from psoriatic patients as previously described [Gilhar A et al. J Invest Dermatol (2011) 131: 118-124]. Two weeks after natural killer/T-cell injection (6 weeks after human skin grafting), mice were injected i.p. five times a week. Four groups of mice were treated as follows: one group of mice was injected five times a week with the vehicle; a second group of mice was injected five times a week ApDx (5 mg/kg); a third group of mice was injected five times a week CaCx (15 mg/kg); and a fourth group of mice, was treated with dexamethasone (DEX) cream applied 5 times a week on the graft, as positive control (DEX was expected to attenuate inflammation in this model). Each group included five mice, and the treatment was performed for a total of 10 days. The grafts were harvested from the four groups of mice, paraffin-embedded, stained for hematoxylin and eosin (H&E), analyzed and scored for the average improvement of the clinical and histological psoriasiform phenotype.

Compound | SAMD9 expression in TERC-transformed fibroblasts [1] | EGR1 expression in primary fibroblast cells [2] | SAMD9 expression in HeLa cells [3] | SAMD9 expression fold change in HeLa cells [3] [fold] | fold induction at 10 µM [4] | SAMD9 expression in primary fibroblasts [5] | Dose and time dependence of SAMD9 up-regulation [5] | Clinical and histological psoriasiform phenotype (average improvement score) [6] | Overt toxicity [6] | Epidermal thickness [6] | Keratinocyte proliferation (Ki67) [6] | EGR1 RNA levels in treated skin ([6]; quantitative PCR vs vehicle group (FIG. 9), CaCx 15 mg/kg i.p.)
CCCN1c2ccc(N)cc2S(=O)(=O)c2cc(Cl)cc(Cl)c21 [Compound 629971, 7,9-dichloro-5,5-dioxo-10-propylphenothiazin-3-amine] | significantly induce | significantly down-regulated | significantly induce | 20.5 | 4.85 | significantly induce | both dose and time dependent | significant clinical and histological attenuation | No overt toxicity | significant decrease | significant decrease | –
Cc1c2ccnc(C(N)=O)c2c(C)c2c1[nH]c1ccccc12.Cl [Compound 335142, 6H-Pyrido[4,3-b]carbazole-1-carboxamide, 5,11-dimethyl-, monohydrochloride] | significantly induce | significantly down-regulated | significantly induce | 6.44 | 2.95 | significantly induce | both dose and time dependent | significant clinical and histological attenuation | No overt toxicity | significant decrease | significant decrease | significant decrease
